Experiments:
Assay in all cases: relative viability (nuclei count vs DMSO), 5 days (fraction); higher = more cells survive
[1] = compound: C=CCNC1=C2C[C@@H](C)C[C@H](OC)[C@H](O)[C@@H](C)/C=C(\C)[C@H](OC(N)=O)[C@@H](OC)/C=C\C=C(/C)C(=O)NC(=CC1=O)C2=O [17-AAG] + Cc1nc(Nc2ncc(C(=O)Nc3c(C)cccc3Cl)s2)cc(N2CCN(CCO)CC2)n1 [Dasatinib] (partner 0.075 µM)
In short: (§1)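 After 5 days of treatment, lung cancer cells in 1536-well plates were fixed and stained in a single step (final 0.05% Triton X-100, 1% formaldehyde, 1 ug/ml Hoechst) and their nuclei counted on 4× images. Treatment had been applied by pin tool the day after seeding as one drug alone or as a fixed anchor-drug dose with five library-drug doses (not always all listed) in √10 steps. Relative viability is the nuclei count of treated wells divided by that of vehicle wells, and values are medians of duplicate plates.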

[2] = compound: C=CCNC1=C2C[C@@H](C)C[C@H](OC)[C@H](O)[C@@H](C)/C=C(\C)[C@H](OC(N)=O)[C@@H](OC)/C=C\C=C(/C)C(=O)NC(=CC1=O)C2=O [17-AAG] + CC(C)C[C@H](NC(=O)[C@H](Cc1ccccc1)NC(=O)c1cnccn1)B(O)O [Bortezomib] (partner 0.002 µM)
In short: as §1

[3] = compound: C=CCNC1=C2C[C@@H](C)C[C@H](OC)[C@H](O)[C@@H](C)/C=C(\C)[C@H](OC(N)=O)[C@@H](OC)/C=C\C=C(/C)C(=O)NC(=CC1=O)C2=O [17-AAG] + CCNC(=O)c1noc(-c2cc(C(C)C)c(O)cc2O)c1-c1ccc(CN2CCOCC2)cc1 [Luminespib] (partner 0.01 µM)
In short: as §1

[4] = compound: C=CCNC1=C2C[C@@H](C)C[C@H](OC)[C@H](O)[C@@H](C)/C=C(\C)[C@H](OC(N)=O)[C@@H](OC)/C=C\C=C(/C)C(=O)NC(=CC1=O)C2=O [17-AAG] + CC1(C)CCC(c2ccc(Cl)cc2)=C(CN2CCN(c3ccc(C(=O)NS(=O)(=O)c4ccc(N[C@H](CCN5CCOCC5)CSc5ccccc5)c(S(=O)(=O)C(F)(F)F)c4)cc3)CC2)C1 [Navitoclax] (partner 0.5 µM)
In short: as §1

Row | Cell Line | relative viability ([1]; first compound 0.00128 µM) | relative viability ([1]; first compound 0.004048 µM) | relative viability ([1]; first compound 0.0128 µM) | relative viability ([1]; first compound 0.04048 µM) | relative viability ([1]; first compound 0.128 µM) | relative viability ([2]; first compound 0.00128 µM) | relative viability ([2]; first compound 0.004048 µM) | relative viability ([2]; first compound 0.0128 µM) | relative viability ([2]; first compound 0.04048 µM) | relative viability ([2]; first compound 0.128 µM) | relative viability ([3]; first compound 0.00128 µM) | relative viability ([3]; first compound 0.004048 µM) | relative viability ([3]; first compound 0.0128 µM) | relative viability ([3]; first compound 0.04048 µM) | relative viability ([3]; first compound 0.128 µM) | relative viability ([4]; first compound 0.00128 µM) | relative viability ([4]; first compound 0.004048 µM) | relative viability ([4]; first compound 0.0128 µM) | relative viability ([4]; first compound 0.04048 µM) | relative viability ([4]; first compound 0.128 µM)
1 | NCI-H661 | 0.878 | 0.862 | 0.853 | 0.361 | 0.195 | 0.857 | 0.912 | 0.781 | 0.637 | 0.393 | 0.872 | 0.895 | 0.797 | 0.353 | 0.257 | – | – | – | – | –
2 | NCI-H1299 | – | – | – | – | – | 1.06 | 0.977 | 1.01 | 0.948 | 0.665 | – | – | – | – | – | 1.04 | 1.01 | 1.07 | 0.952 | 0.755
3 | NCI-H1395 | 0.429 | 0.366 | 0.304 | 0.326 | 0.287 | – | – | – | – | – | 0.638 | 0.535 | 0.329 | 0.359 | 0.331 | 1.03 | 1.29 | 0.698 | 0.458 | 0.344
4 | NCI-H1563 | 0.493 | 0.504 | 0.481 | 0.42 | 0.324 | 0.855 | 0.702 | 0.597 | 0.573 | 0.469 | 0.476 | 0.497 | 0.537 | 0.525 | 0.49 | – | – | – | – | –
5 | NCI-H1703 | – | – | – | – | – | 0.316 | 0.154 | 0.145 | 0.153 | 0.138 | – | – | – | – | – | 0.961 | 0.22 | 0.16 | 0.162 | 0.125
6 | NCI-H1793 | 0.437 | 0.243 | 0.14 | 0.122 | 0.129 | – | – | – | – | – | 0.191 | 0.149 | 0.136 | 0.16 | 0.169 | 0.346 | 0.323 | 0.228 | 0.192 | 0.151
7 | NCI-H1944 | 0.198 | 0.199 | 0.175 | 0.158 | 0.15 | – | – | – | – | – | 0.595 | 0.603 | 0.565 | 0.219 | 0.151 | 1.05 | 1.05 | 1.02 | 0.948 | 0.372
8 | NCI-H2170 | 0.623 | 0.663 | 0.275 | 0.123 | 0.111 | – | – | – | – | – | 0.696 | 0.502 | 0.374 | 0.137 | 0.151 | 0.649 | 0.578 | 0.548 | 0.251 | 0.167
9 | NCI-H2342 | 0.294 | 0.394 | 0.306 | 0.293 | 0.3 | – | – | – | – | – | 0.695 | 0.689 | 0.602 | 0.402 | 0.38 | – | – | – | – | –
10 | SK-MES-1 | 0.358 | 0.249 | 0.11 | 0.106 | 0.101 | – | – | – | – | – | 0.633 | 0.327 | 0.181 | 0.166 | 0.157 | 1.17 | 1.12 | 0.951 | 0.162 | 0.131
11 | SW 900 | 0.731 | 0.314 | 0.118 | 0.0729 | 0.0968 | – | – | – | – | – | 0.183 | 0.172 | 0.19 | 0.153 | 0.153 | – | – | – | – | –

— the supplement of paper PMC10307832
